Consider 3 substances from US20170002041A1, “NOVEL ULTRASHORT HYDROPHOBIC PEPTIDES THAT SELF-ASSEMBLE INTO NANOFIBROUS HYDROGELS AND THEIR USES” (AGENCY FOR SCIENCE, TECHNOLOGY AND RESEARCH, priority 2013, published 2017).

Assay type in all cases: physicochemical
Data set [1] in a line: Hydrogel formation / minimum gelation concentration. The source says: To prepare the peptide hydrogels, the lyophilized peptide powders were first dissolved in milliQ water and mixed by vortexing for 30 seconds to obtain a homogenous solution. The gelation occurred between minutes to overnight, depending on the peptide concentration. Gelation can be facilitated by sonication or heating.

Data set [2] can be described thus: Formation of aggregates and fibrous structures.
Data set [3] in a line: Hydrogel rigidity, storage modulus (G′).

As for Ac-ILVAG, the hydrogel formation result in data set [1] (at 5 mg/mL) is recorded as “hydrogel”.

Regarding Ac-LD6 (L), in data set [2], the “concentration at which formation of aggregates is observed” value was found to be 100 µg/mL and the “concentration at which peptide monomers align to form fibrous structures” value came out at 1000 µg/mL.

Take Ac-LIVAGK-NH2: the “minimum gelation concentration (forms hydrogels at)” value in data set [1] (in 10 mM NaOH) turned out to be 10 mg/mL; in data set [1] (in PBS), 7.5 mg/mL; in data set [1] (in saline), 12 mg/mL; in data set [1] (in water) it was 20 mg/mL. Also, the “storage modulus (G′)” value in data set [3] (20 mg/mL hydrogel in normal saline (NaCl)) is reported as 10 kPa; in data set [3] (20 mg/mL hydrogel in phosphate buffered saline (PBS)) it was 40 kPa; in data set [3] (20 mg/mL hydrogel in water), 1 kPa; in data set [3] (20 mg/mL hydrogel, addition of sodium hydroxide (NaOH)), 80 kPa.
